Reference: PubChem BioAssay AID720512 (Broad Institute, 2013)
Active and inactive are the calls of the source. How the calls were made is not given here.

Biological target: Toxin B (TcdB) glycohydrolase, Clostridioides difficile 630
Assay: TcdB glycohydrolase inhibitors, dose response, biochemical, cherry-pick, plate reader (AID 720512)
Conditions: recombinant TcdB glycohydrolase activity

Cn1cc(C(CO)Cc2ccccc2)c2ccccc21 (stereo not drawn)
activity change, negative = inhibition (at 19.5 µM (top of the series)): inactive

COc1cc(/C=N/Nc2nc3ccccc3[nH]2)ccc1O
activity change, negative = inhibition (at 19.5 µM (top of the series)): inactive

C[C@H](CO)N1C[C@H](C)[C@@H](CN(C)C(=O)Nc2ccc(C(F)(F)F)cc2)Oc2c(NS(=O)(=O)c3ccccc3)cccc2C1=O
AC50: > 39 µM (inactive)

C=CCn1c(C)cc(C(=O)COC(=O)CCc2cc(OC)c(OC)c(OC)c2)c1C
activity change, negative = inhibition (at 19.5 µM (top of the series)): inactive

Cc1onc(-c2ccccc2)c1C(=O)N/N=C/c1cn(C)c2ccccc12
activity change, negative = inhibition (at 19.5 µM (top of the series)): inactive

COCC#Cc1ccc2c(c1)O[C@@H](CN(C)C(=O)CC1CC1)[C@H](C)CN([C@@H](C)CO)S2(=O)=O
activity change, negative = inhibition (at 19.5 µM (top of the series)): inactive

CC[C@H](C)[C@@H]1NC(=O)c2cc([N+](=O)[O-])cc(I)c2NCC[C@@H](C(N)=O)NC(=O)[C@H](CCCN=C(N)N)NC1=O
activity change, negative = inhibition (at 19.5 µM (top of the series)): inactive

CSc1cccc(NC(=O)CCc2ccccc2)c1
activity change, negative = inhibition (at 19.5 µM (top of the series)): inactive

O=C1Nc2ccccc2C1c1ncc(C(F)(F)F)cc1Cl (stereo not drawn)
activity change, negative = inhibition (at 19.5 µM (top of the series)): inactive

Cc1ccc(-c2csc(NC(=O)/C=C/c3ccco3)c2C(=O)O)cc1
activity change, negative = inhibition (at 19.5 µM (top of the series)): inactive

CC(C)CNC(=O)c1c(F)c(F)c(F)c(F)c1F
activity change, negative = inhibition (at 19.5 µM (top of the series)): inactive

COc1ccc2nc(NNC(=O)C3COc4ccccc4O3)sc2c1 (stereo not drawn)
AC50: 3.04 µM

CC(=O)Oc1ccc2nc(/C=C/c3ccccc3)oc(=O)c2c1
activity change, negative = inhibition (at 19.5 µM (top of the series)): inactive

COc1cccc(C(=O)Nc2ccc3c(c2)C(=O)N(C)[C@@H]2CC[C@H](CC(=O)NCCCN4CCOCC4)O[C@@H]2CO3)c1
activity change, negative = inhibition (at 19.5 µM (top of the series)): inactive

CC(C)(C)c1cc(Cl)c(O)c(NC(=S)NC(=O)c2cccnc2)c1
activity change, negative = inhibition (at 19.5 µM (top of the series)): inactive

C=CCOc1cccc(CNc2ccc3[nH]c(=O)[nH]c3c2)c1
activity change, negative = inhibition (at 19.5 µM (top of the series)): inactive

CCOc1ccccc1NC(=O)CCNS(=O)(=O)c1cccc2nonc12
activity change, negative = inhibition (at 19.5 µM (top of the series)): inactive

CC(C)Sc1nnc(NC(=O)c2ccco2)s1
activity change, negative = inhibition (at 19.5 µM (top of the series)): inactive

COCCCNC(=O)C1CCN(S(=O)(=O)c2c(C)noc2/C=C\c2ccc(OC)cc2)CC1
activity change, negative = inhibition (at 19.5 µM (top of the series)): inactive

CCOc1cc(NC(=S)NCC2CCCO2)c(OCC)cc1NC(=O)c1ccc(F)cc1 (stereo not drawn)
activity change, negative = inhibition (at 19.5 µM (top of the series)): inactive

COc1ccc(CNC(=O)Cc2cn(C)c3ccccc23)c(OC)c1
activity change, negative = inhibition (at 19.5 µM (top of the series)): inactive

CC(C)OC(=O)c1cccc(C(=O)O)n1
activity change, negative = inhibition (at 19.5 µM (top of the series)): inactive

Cc1cc(=O)oc2c(N)c(O)ccc12
activity change, negative = inhibition (at 19.5 µM (top of the series)): inactive

O=C(NCc1cc(C(F)(F)F)cc(C(F)(F)F)c1)C1CC(c2c(Cl)cccc2Cl)=NO1 (stereo not drawn)
activity change, negative = inhibition (at 19.5 µM (top of the series)): inactive

CCCNC(=O)N1CC[C@@H]2[C@@H](CO)N(C)c3ccc(-c4ccccc4)cc3[C@@H]21
AC50: > 39 µM (inactive)

COc1ccc(/C=C2\CCCCC2=O)cc1
activity change, negative = inhibition (at 19.5 µM (top of the series)): inactive

Cc1cccc(-c2n[nH]c(=S)n2/N=C/C=C/c2ccco2)c1
activity change, negative = inhibition (at 19.5 µM (top of the series)): inactive

FC(F)(F)c1cc(Cl)c2nc(-c3ccccc3)c(Cc3ccsc3)n2c1
activity change, negative = inhibition (at 19.5 µM (top of the series)): inactive

CCN(C(=O)CN1C(=O)NC2(CCC(C)CC2)C1=O)C1CCCCC1 (stereo not drawn)
activity change, negative = inhibition (at 19.5 µM (top of the series)): inactive

CCCNC(=O)C[C@H]1CC[C@@H]2[C@@H](COc3ccc(NC(=O)c4ccc(Cl)cc4)cc3C(=O)N2C)O1
AC50: > 39 µM (inactive)

O=C(Nc1ccccc1F)N1C[C@@H]2N[C@H](C1)C2c1ccc(-c2cccc(F)c2)cc1 (stereo partly drawn)
activity change, negative = inhibition (at 19.5 µM (top of the series)): inactive

CCSc1nnc(NC(=O)C2CC2c2ccccc2)s1 (stereo not drawn)
activity change, negative = inhibition (at 19.5 µM (top of the series)): inactive

COc1ccc(CNC(=O)C2=CC(c3ccc(OC)cc3)=NS(=O)(=O)N2C)cc1
activity change, negative = inhibition (at 19.5 µM (top of the series)): inactive

Cc1ccc(NS(=O)(=O)c2ccc(C)c(NC(=S)NCCN3CCOCC3)c2)c(C)c1
activity change, negative = inhibition (at 19.5 µM (top of the series)): inactive

CC(OC(=O)c1cccnc1Cl)C(=O)NC1CCCCC1 (stereo not drawn)
activity change, negative = inhibition (at 19.5 µM (top of the series)): inactive

O=C(O)c1ccccc1C(=O)c1ccc2c(c1)N(Cc1cccc(F)c1)C(=O)CO2
activity change, negative = inhibition (at 19.5 µM (top of the series)): inactive

Cc1cccc(CN2CCN(c3ncccn3)CC2)c1
activity change, negative = inhibition (at 19.5 µM (top of the series)): inactive

Nc1ccc(OCCCc2c(N)nc(N)nc2N)cc1
AC50: > 39 µM (inactive)

CCCc1cc(-c2n[nH]c(C(=O)OCC)c2-c2cscn2)c(O)cc1O
activity change, negative = inhibition (at 19.5 µM (top of the series)): inactive

Cc1ccc(NNC(=O)c2ccno2)c(C)c1
activity change, negative = inhibition (at 19.5 µM (top of the series)): inactive

COC(=O)[C@H]1C[C@@H]1[C@H](NP(=O)(c1ccccc1)c1ccccc1)c1ccccc1
activity change, negative = inhibition (at 19.5 µM (top of the series)): inactive

CCCCCCCN1C(N(C)C)=NC[C@@H]1Cc1ccccc1
activity change, negative = inhibition (at 19.5 µM (top of the series)): inactive

Cc1onc(-c2ccccc2Cl)c1C(=O)Nc1cnn(Cc2ccccc2)c1
activity change, negative = inhibition (at 19.5 µM (top of the series)): inactive

COc1ccc(/C=C\c2onc(C)c2S(=O)(=O)N2CCC(C(=O)NCc3ccco3)CC2)cc1
activity change, negative = inhibition (at 19.5 µM (top of the series)): inactive

CC(/C=N/n1c(-c2ccncc2)n[nH]c1=S)=C\c1ccco1
activity change, negative = inhibition (at 19.5 µM (top of the series)): inactive

COC(=O)c1ccc(OC(=O)c2ccc(OC)cc2)c(OC)c1
activity change, negative = inhibition (at 19.5 µM (top of the series)): inactive

COc1ccc(-c2ccc3c(c2)[C@H]2[C@H](CCN2C(=O)C2CC2)[C@@H](CO)N3C)cc1
AC50: > 39 µM (inactive)

CC(=O)C1=CCC(c2ccccc2)N(S(=O)(=O)c2ccc(C)cc2)C1 (stereo not drawn)
activity change, negative = inhibition (at 19.5 µM (top of the series)): inactive

NS(=O)(=O)c1ccc(NC(=S)NCc2ccc3c(c2)OCO3)cc1
activity change, negative = inhibition (at 19.5 µM (top of the series)): inactive

O=c1[nH]c(/C=C\c2ccc(O)c(Cl)c2)nc(O)c1[N+](=O)[O-]
AC50: > 39 µM (inactive)

Cc1ccc(CNC(=O)Nc2cccc(C)c2)cc1
activity change, negative = inhibition (at 19.5 µM (top of the series)): inactive

COc1ccc(Cl)cc1NC(=O)CN(C)C(=O)c1cc2c(s1)CCCC2
activity change, negative = inhibition (at 19.5 µM (top of the series)): inactive

Cc1ccc(CNCCCn2cnc(C(=O)Nc3ccc(C)c(C)c3)n2)o1
activity change, negative = inhibition (at 19.5 µM (top of the series)): inactive

CN1C(=O)c2cc(NC(=O)c3cccc(F)c3)ccc2OC[C@H]2O[C@H](CC(=O)NCC3CCCCC3)CC[C@@H]21
activity change, negative = inhibition (at 19.5 µM (top of the series)): inactive

CN1C(=O)c2cc(NC(=O)c3cccc(F)c3)ccc2OC[C@@H]2O[C@@H](CC(=O)NCC3CCCCC3)CC[C@@H]21
activity change, negative = inhibition (at 19.5 µM (top of the series)): inactive

O=C1c2c(O)ccc(O)c2C(=O)c2c(NCCNCCO)ccc(NCCNCCO)c21
activity change, negative = inhibition (at 10 µM (top of the series)): inactive

Cc1ccc(S(=O)(=O)/N=C(/Nc2cccc(O)c2)c2ccccc2)cc1
activity change, negative = inhibition (at 19.5 µM (top of the series)): inactive

COc1cc(NC(=O)CCc2nnc3ccc(N4CCC(C)CC4)nn23)cc(OC)c1
activity change, negative = inhibition (at 19.5 µM (top of the series)): inactive

COC(=O)[C@@]12CCCCN1[C@H](c1ccc(-c3ccccc3)c(OC)c1)[C@H]1C(=O)N(C)C(=O)[C@H]12
activity change, negative = inhibition (at 19.5 µM (top of the series)): inactive

COc1cc(/C=C/C(=O)OCC(=O)NC(=O)NC(C)(C)C)ccc1O
AC50: > 39 µM (inactive)

CSc1ccc(/C=N/N2CCN(Cc3ccc(Cl)cc3)CC2)cc1
activity change, negative = inhibition (at 19.5 µM (top of the series)): inactive

O=c1c2ccccc2oc2ccc(NCCCN3CCOCC3)cc12
activity change, negative = inhibition (at 19.5 µM (top of the series)): inactive

Cc1cc(N2CCCC2=O)cc(C)c1S(=O)(=O)Nc1c(C)nn(C)c1C
activity change, negative = inhibition (at 19.5 µM (top of the series)): inactive

COc1ccc(NC2CCCN(C(=O)CN3CCOC3=O)C2)cc1OC (stereo not drawn)
activity change, negative = inhibition (at 19.5 µM (top of the series)): inactive

CNC(=O)C[C@H]1CC[C@@H]2[C@H](COc3ccc(NS(=O)(=O)c4ccccc4C)cc3C(=O)N2C)O1
activity change, negative = inhibition (at 21 µM (top of the series)): inactive

O=C(C[C@@H]1CC[C@H]2[C@@H](COC[C@@H](O)CN2C(=O)c2ccccn2)O1)NC1CCC1
activity change, negative = inhibition (at 19.5 µM (top of the series)): inactive

CCN(CC)C(=O)C1CCN(S(=O)(=O)c2c(C)noc2/C=C/c2cccc(C)c2)CC1
activity change, negative = inhibition (at 19.5 µM (top of the series)): inactive

CC(=O)Nc1ccc(OC(=O)Oc2ccc(NC(C)=O)cc2)cc1
activity change, negative = inhibition (at 19.5 µM (top of the series)): inactive

CC[n+]1ccc(/C=C/c2ccc(N(C)C)cc2)c2ccccc21
activity change, negative = inhibition (at 19.5 µM (top of the series)): inactive

Clc1ccc(-c2nc3ccc(Cl)cn3c2Cc2ccccc2)cc1
activity change, negative = inhibition (at 19.5 µM (top of the series)): inactive

O=C(CSc1cccc2cccnc12)N/N=C/c1ccc(O)cc1
activity change, negative = inhibition (at 19.5 µM (top of the series)): inactive

Cc1nn2cc(-c3cccc(Cl)c3)cnc2c1Br
activity change, negative = inhibition (at 19.5 µM (top of the series)): inactive

O=C(Nc1nnc(-c2ccco2)o1)C1CC1
activity change, negative = inhibition (at 19.5 µM (top of the series)): inactive

CC(Sc1nccn1C)C(=O)c1c(N)n(C)c(=O)n(C)c1=O (stereo not drawn)
activity change, negative = inhibition (at 19.5 µM (top of the series)): inactive

COc1ccc(C(=O)Nc2ccc3c(c2)C(=O)N(C)[C@@H]2CC[C@H](CC(=O)NCC4CC4)O[C@@H]2CO3)cc1
activity change, negative = inhibition (at 19.5 µM (top of the series)): inactive

Cc1cc(C)nc(SCC(=O)c2ccc(O)c(O)c2)n1
activity change, negative = inhibition (at 19.5 µM (top of the series)): inactive

Cc1[nH]nc(-c2ccc(O)cc2O)c1Oc1ccccc1
activity change, negative = inhibition (at 19.5 µM (top of the series)): inactive

CCCCn1c(N)c(N(CC)C(=O)c2cccs2)c(=O)[nH]c1=O
activity change, negative = inhibition (at 19.5 µM (top of the series)): inactive

COc1ccc([N+](=O)[O-])cc1NC(=S)NC(C)=O
activity change, negative = inhibition (at 19.5 µM (top of the series)): inactive

COc1cc(/C=N/NC(=O)C2COc3ccccc3O2)ccc1O (stereo not drawn)
activity change, negative = inhibition (at 19.5 µM (top of the series)): inactive

O=C(Nc1ccc(O)cc1)c1ccc2c(c1)C(=O)N(Cc1ccco1)C2=O
activity change, negative = inhibition (at 19.5 µM (top of the series)): inactive

CCCNC(=O)Nc1ccc2c(c1)C(=O)N(C)[C@H]1CC[C@H](CC(=O)NC3CCC3)O[C@@H]1CO2
activity change, negative = inhibition (at 19.5 µM (top of the series)): inactive

CC(=O)Nc1n[nH]c(=S)s1
activity change, negative = inhibition (at 19.5 µM (top of the series)): inactive

CCOc1ccccc1-n1c(C)nc2cc(C(=O)O)ccc21
activity change, negative = inhibition (at 19.5 µM (top of the series)): inactive

COc1ccc(Cl)cc1-n1c(=S)sc2c(=O)n(-c3ccc(F)cc3)c(SCC(=O)O)nc21
activity change, negative = inhibition (at 19.5 µM (top of the series)): inactive

CNC(=O)N(O)C1N(/N=C/c2ccc(SC)cc2)C(=S)SC1(C)C (stereo not drawn)
activity change, negative = inhibition (at 19.5 µM (top of the series)): inactive

COc1ccccc1C1NC(=O)NC(C)=C1C(=O)OC1CCCCC1 (stereo not drawn)
activity change, negative = inhibition (at 19.5 µM (top of the series)): inactive

CCOC(=O)c1nnn(-c2nonc2N)c1-c1ccc(F)cc1
activity change, negative = inhibition (at 19.5 µM (top of the series)): inactive
